Values of other authors as cited in patent US8858963B1, “Tamper resistant composition comprising hydrocodone and acetaminophen for rapid onset and extended duration of analgesia” (Mallinckrodt LLC, priority 2011, dated 2014).

System: hepatic GSH
Details: Swiss mice

CC(=O)Nc1ccc(O)cc1 [acetaminophen]
onset of circulating hepatic GSH changes after administration (acetaminophen 100 mg/kg to 600 mg/kg): ≤ 15 min | time of minimum GSH level after injection (all dose groups (100 mg/kg to 600 mg/kg)): 2 h
